Literature values as cited in patent publication US20250120913A1, “STABLE QUERCETIN NANOSUSPENSIONS” (Sirona Biosciences Inc., priority 2023, published 2025).

Conditions: depending on the pH level

- aqueous solubility: 1.5 to 12.5 µg/mL
SMILES: O=c1c(O)c(-c2ccc(O)c(O)c2)oc2cc(O)cc(O)c12 [Quercetin]
